According to EP0821956A1, “Method for treating disruptive behavior disorders” (ELI LILLY AND COMPANY, priority 1996, dated 1998):

Columns and labels:
[1] = molecular target: ^3H-oxotremorine-M binding (muscarinic receptors); assay: 3H-oxotremorine-M binding study; settings: inhibition of binding of ^3H-oxotremorine-M; read-out: inhibition constant (Ki)
m4 receptors = m4 receptors (Homo sapiens, UniProt P08173); assay type: cell-based; settings: CHO m4 cells treated with pertussis toxin
D2 receptor subtype = D2 receptor subtype (Homo sapiens, UniProt P14416); assay: pharmacological studies at the D2 receptor subtype
D2 receptor subtype, sequence (P14416 whole entry): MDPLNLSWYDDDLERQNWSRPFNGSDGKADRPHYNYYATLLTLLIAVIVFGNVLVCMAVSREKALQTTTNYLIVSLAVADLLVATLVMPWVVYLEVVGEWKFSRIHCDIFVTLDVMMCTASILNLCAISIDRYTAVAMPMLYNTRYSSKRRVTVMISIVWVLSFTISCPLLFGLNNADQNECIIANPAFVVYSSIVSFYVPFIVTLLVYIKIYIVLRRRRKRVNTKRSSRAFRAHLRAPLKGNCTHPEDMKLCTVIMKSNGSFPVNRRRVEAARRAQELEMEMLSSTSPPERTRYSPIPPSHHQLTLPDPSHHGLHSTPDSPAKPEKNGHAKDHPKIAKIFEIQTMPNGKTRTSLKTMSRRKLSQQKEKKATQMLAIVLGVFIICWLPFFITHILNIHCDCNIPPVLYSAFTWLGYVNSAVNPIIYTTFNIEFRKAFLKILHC

m4 receptors, sequence (P08173 whole entry): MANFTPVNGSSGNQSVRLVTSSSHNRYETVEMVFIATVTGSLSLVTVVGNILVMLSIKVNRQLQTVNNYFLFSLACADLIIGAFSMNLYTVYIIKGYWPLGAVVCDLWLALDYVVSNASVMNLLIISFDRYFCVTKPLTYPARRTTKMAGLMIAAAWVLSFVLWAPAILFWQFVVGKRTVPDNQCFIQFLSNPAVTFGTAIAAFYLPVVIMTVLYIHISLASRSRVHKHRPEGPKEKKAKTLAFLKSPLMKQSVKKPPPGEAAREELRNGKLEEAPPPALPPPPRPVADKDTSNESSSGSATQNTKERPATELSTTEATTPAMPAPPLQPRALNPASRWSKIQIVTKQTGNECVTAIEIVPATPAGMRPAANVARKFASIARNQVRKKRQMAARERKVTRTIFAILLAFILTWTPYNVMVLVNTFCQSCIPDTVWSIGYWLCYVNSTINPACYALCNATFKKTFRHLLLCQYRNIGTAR

**Q.** How did the Ki [1] turn out when `CCCCCCOc1nsnc1C1=CCCN(C)C1` [xanomeline, 3-(4-hexyloxy-1,2,5-thiadiazol-3-yl)-1,2,5,6-tetrahydro-1-methylpyridine] was run?
**A.** 2 nM

**Q.** What about the “formation of cAMP” value (m4 receptors) of the same compound?
**A.** efficaciously and potently stimulated the formation of cAMP

**Q.** What about the “activity at the D2 receptor subtype” value (D2 receptor subtype) of the same compound?
**A.** active
